Test results reported in paper PMC6017319, “Potent GH20 N-Acetyl-β-D-hexosaminidase Inhibitors: N-Substituted 3-acetamido-4-amino-5-hydroxymethyl-cyclopentanediols” (Molecules : A Journal of Synthetic Chemistry and Natural …, 2018).
pIC50, pKi: −log10 of the molar value. Where two headings read alike, the source gives them in different places.

Key:
[1] = target: T1, human lysosomal N-acetyl-β-hexosaminidase A (Homo sapiens, UniProt P06865); assay: Human N-acetyl-β-hexosaminidase A activity in fibroblast homogenate (4-MU N-acetyl-β-glucosaminide-6-sulfate substrate); format: biochemical; conditions: normal human skin fibroblast homogenate, pH 4.4, 37 °C, 60 min; read-out: IC50 with human lysosomal N-acetyl-β-D-hexosaminidase A
T1 construct: endogenous in cells; host or cells: human skin fibroblasts (wild type), cell homogenate
Description: All cells used in this study were between the third and nineteenth passages.

[2] = target: T2, Streptomyces plicatus N-acetyl-β-hexosaminidase (SpHex) (Streptomyces plicatus, UniProt O85361); parameters: method as in PMID 11828466; conditions: with the same enzyme; read-out: Ki with SpHex (reference compound); cited from earlier work
T2 construct: made in house; host or cells: E. coli
T2 sequence (O85361 1-506): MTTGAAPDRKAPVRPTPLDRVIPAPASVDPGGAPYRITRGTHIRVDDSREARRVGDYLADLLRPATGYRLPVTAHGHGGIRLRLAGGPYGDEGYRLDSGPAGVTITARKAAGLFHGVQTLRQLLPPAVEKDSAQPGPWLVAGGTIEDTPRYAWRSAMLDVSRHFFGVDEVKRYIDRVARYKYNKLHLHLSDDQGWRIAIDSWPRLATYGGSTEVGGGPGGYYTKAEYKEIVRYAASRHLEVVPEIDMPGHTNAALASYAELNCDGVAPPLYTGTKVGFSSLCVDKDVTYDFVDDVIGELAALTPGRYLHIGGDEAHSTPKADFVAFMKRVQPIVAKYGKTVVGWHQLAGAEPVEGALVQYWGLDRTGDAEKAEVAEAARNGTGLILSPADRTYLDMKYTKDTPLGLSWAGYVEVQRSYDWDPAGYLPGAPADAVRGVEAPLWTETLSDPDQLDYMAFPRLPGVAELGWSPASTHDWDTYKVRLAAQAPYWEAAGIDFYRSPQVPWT

[3] = target: T2, Streptomyces plicatus N-acetyl-β-hexosaminidase (SpHex); assay: SpHex kinetic inhibition assay (4-nitrophenyl N-acetyl-β-D-glucosaminide substrate, competitive model); format: biochemical
Experimental: Streptomyces plicatus N-acetyl-β-hexosaminidase, SpHex, was expressed and purified in E. coli as described previously. Kinetic studies were performed at 25 °C in the assay buffer (sodium phosphate (50 mM), sodium citrate (50 mM), NaCl (100 mM), BSA (2 mg/mL), pH = 6.0). The enzyme was incubated with different concentrations of the inhibitors for 2–5 min prior to the start of the reaction by addition of the substrate (4-nitrophenyl N-acetyl-β-D-glucosaminide) and the initial rates were measured by monitoring the increase in absorbance at 405 nm for three to five minutes using a microplate reader (Synergy H1, BioTek, VT, USA). Ki determinations were performed using two or three different substrate concentrations. For each one of these substrate concentrations a range of five to eight different inhibitor concentrations bracketing the ultimately determined Ki value were used. Dixon plots (1/rate vs [I]) were constructed to validate the use of a competitive inhibition model. The data were then fit to a competitive inhibition model using non-linear regression analysis with GraFit 7.0 (Erithacus Software, UK). Assays were done twice using enzyme concentrations of 0.3 nM and 0.03 nM respectively in order to check compliance with the assumptions of Michaelis Menten kinetics ([E] << [I]). In addition, for compound 25, the assays were done a third time with the concentration of enzyme lowered to 0.003 nM. In all cases, the Ki values were in good agreement.

T1 sequence (P06865 89-529): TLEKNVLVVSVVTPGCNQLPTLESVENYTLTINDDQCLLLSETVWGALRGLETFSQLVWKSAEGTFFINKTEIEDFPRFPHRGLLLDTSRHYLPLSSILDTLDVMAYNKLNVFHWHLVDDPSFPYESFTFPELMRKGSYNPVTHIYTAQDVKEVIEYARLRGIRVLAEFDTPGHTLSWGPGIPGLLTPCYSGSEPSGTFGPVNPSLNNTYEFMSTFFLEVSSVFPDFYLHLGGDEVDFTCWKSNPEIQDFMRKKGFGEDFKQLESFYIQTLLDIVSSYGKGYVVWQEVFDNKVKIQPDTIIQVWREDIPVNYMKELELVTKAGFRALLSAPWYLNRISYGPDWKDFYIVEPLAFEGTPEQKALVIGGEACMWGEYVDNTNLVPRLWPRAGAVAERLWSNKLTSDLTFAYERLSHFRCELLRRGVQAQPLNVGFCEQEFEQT
T1 sequence (P07686 122-311 partner limits assumed): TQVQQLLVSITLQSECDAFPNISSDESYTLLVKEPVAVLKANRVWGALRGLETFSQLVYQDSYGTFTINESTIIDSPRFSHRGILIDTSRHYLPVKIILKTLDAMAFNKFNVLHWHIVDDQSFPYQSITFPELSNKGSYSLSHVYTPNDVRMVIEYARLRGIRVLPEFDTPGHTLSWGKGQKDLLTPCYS
T1 sequence (P07686 315-556 partner limits assumed): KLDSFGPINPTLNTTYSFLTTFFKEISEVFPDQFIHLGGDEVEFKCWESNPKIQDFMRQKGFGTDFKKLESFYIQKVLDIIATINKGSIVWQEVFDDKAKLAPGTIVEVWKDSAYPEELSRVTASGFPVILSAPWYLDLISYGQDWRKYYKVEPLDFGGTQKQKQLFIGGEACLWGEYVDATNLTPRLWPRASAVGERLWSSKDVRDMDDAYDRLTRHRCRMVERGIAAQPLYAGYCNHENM

| Structure (SMILES) | pIC50 [1] | pKi [2] | pKi ([3]; 25 °C, pH 6.0, competitive inhibition model, read-out: Ki-values with SpHex) | pKi [3] |
| --- | --- | --- | --- | --- |
| CC(=O)NC1CNC(CO)C(O)C1O (centres unmarked) [compound 1, 2-acetamido-1,2-dideoxynojirimycin, reference compound] | 4.51 | 4.10 | – | – |
| CC(=O)NC1C(N)C(CO)C(O)C1O (centres unmarked) [compound 20] | – | – | 9.15 | – |
| CCCCCCNC1C(CO)C(O)C(O)C1NC(C)=O (centres unmarked) [compound 21] | 6.06 | – | – | 9.22 |
| COC(=O)CCCCCNC1C(CO)C(O)C(O)C1NC(C)=O [compound 22, (1S,2R,3S,4R,5R)-N-(Methoxycarbonyl)pentyl-3-acetamido-4-amino-5-hydroxymethyl-cyclopentanetriol] | – | – | – | 9.15 |
| CC(=O)NC1C(O)C(O)C(CO)C1NCCCCCCNS(=O)(=O)c1cccc2c(N(C)C)cccc12 [compound 25, (1S,2R,3S,4R,5R)-N-(6-Dansylamino)hexyl-3-acetamido-4-amino-5-hydroxymethyl-cyclopentanetriol] | 6.52 | – | – | 10.22 |
